According to ChEMBL document CHEMBL1139814, “Conformationally restricted homotryptamines. Part 4: Heterocyclic and naphthyl analogs of a potent selective serotonin reuptake inhibitor” (Bioorg Med Chem Lett, 2007):

What was measured:
[1] = biological target: Sodium-dependent serotonin transporter (Homo sapiens, UniProt P31645); assay: Inhibition of human SERT
[2] = biological target: T1, Sodium-dependent dopamine transporter (Homo sapiens, UniProt Q01959); assay: Inhibition of DAT
[3] = biological target: T2, Sodium-dependent noradrenaline transporter (Homo sapiens, UniProt P23975); assay: Inhibition of NET at 1 uM
[4] = biological target: T1, Sodium-dependent dopamine transporter; assay: Inhibition of DAT at 1 uM
[5] = biological target: T2, Sodium-dependent noradrenaline transporter; assay: Inhibition of NET

T2 sequence (P23975 whole entry): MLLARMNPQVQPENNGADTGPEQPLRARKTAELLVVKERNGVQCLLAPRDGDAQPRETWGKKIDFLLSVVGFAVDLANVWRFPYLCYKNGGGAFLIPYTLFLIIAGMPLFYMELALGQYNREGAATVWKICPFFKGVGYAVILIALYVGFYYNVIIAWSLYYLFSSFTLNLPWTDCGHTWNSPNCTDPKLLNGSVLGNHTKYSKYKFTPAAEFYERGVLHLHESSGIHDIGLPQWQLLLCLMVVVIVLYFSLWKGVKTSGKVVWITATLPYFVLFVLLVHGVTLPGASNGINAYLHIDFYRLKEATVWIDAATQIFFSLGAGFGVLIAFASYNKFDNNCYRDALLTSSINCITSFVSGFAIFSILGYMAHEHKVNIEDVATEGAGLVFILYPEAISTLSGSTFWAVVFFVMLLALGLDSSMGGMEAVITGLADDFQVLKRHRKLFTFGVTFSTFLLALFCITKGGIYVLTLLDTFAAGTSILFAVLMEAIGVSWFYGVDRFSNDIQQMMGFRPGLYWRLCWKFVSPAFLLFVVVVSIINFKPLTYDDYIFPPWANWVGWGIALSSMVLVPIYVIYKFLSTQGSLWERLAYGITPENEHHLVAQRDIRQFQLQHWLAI
T1 sequence (Q01959 whole entry): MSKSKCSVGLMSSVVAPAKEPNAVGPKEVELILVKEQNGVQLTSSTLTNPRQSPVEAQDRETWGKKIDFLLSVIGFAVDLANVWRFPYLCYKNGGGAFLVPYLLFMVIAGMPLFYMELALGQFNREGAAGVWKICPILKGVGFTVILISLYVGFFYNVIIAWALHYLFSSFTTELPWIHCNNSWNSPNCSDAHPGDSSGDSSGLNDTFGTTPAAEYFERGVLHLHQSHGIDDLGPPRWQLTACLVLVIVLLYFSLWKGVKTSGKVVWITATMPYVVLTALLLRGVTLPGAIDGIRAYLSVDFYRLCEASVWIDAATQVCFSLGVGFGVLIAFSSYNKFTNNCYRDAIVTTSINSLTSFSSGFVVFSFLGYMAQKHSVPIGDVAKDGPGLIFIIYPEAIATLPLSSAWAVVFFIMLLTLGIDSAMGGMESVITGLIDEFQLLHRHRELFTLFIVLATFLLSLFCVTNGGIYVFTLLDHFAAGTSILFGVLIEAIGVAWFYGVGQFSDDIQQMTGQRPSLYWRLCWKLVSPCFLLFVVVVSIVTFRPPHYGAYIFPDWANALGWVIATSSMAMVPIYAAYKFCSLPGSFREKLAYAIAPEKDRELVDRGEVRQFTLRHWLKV
Sodium-dependent serotonin transporter, sequence (P31645 whole entry): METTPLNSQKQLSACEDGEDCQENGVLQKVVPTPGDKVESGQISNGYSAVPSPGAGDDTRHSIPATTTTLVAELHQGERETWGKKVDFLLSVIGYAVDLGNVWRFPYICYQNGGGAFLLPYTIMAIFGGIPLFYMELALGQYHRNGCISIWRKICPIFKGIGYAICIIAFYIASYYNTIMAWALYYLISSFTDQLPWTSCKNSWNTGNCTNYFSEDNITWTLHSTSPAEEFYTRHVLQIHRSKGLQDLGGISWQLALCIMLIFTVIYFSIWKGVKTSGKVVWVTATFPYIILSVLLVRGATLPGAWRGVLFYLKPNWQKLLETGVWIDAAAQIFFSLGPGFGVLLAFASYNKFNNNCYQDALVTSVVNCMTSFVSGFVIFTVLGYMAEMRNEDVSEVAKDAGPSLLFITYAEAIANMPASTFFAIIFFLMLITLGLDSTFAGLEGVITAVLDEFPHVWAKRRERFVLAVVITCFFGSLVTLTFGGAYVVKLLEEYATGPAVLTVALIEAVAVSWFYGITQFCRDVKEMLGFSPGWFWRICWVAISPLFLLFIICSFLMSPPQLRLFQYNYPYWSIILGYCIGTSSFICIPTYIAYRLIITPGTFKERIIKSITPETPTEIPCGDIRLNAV

| Structure (SMILES) | IC50 [1] | IC50 [2] | inhibition [3] | inhibition [4] | IC50 [5] |
| --- | --- | --- | --- | --- | --- |
| CN(C)C[C@H]1C[C@@H]1c1c[nH]c2ccc(C#N)cc12 | 0.48 nM |  |  |  |  |
| CNCC1CC1c1cccc2cc(C#N)ccc12 (stereo unspecified) | 17 nM |  |  |  |  |
| CN(C)CC1CC1c1ccc2cc(C#N)ccc2c1 (stereo unspecified) | 13 nM | 1100 nM | 69% | 41% | 560 nM |
| CN(C)CC1CC1c1cccc2c(C#N)cccc12 (stereo unspecified) | 48 nM | 12000 nM | 25% | 9.5% | 39000 nM |
| CNCC1CC1c1ccc2ccccc2c1 (stereo unspecified) | 52 nM |  |  |  |  |
| CCN(C)CC1CC1c1ccc2ccccc2c1 (stereo unspecified) | 310 nM |  |  |  |  |
| N#Cc1ccc2c(C3CC3CN3CCCC3)cccc2c1 (stereo unspecified) | 51 nM |  |  |  |  |
| CCN(CC)CC1CC1c1cccc2ccccc12 (stereo unspecified) | 120 nM |  |  |  |  |
| CN(C)CC1CC1c1cccc2cc(C#N)ccc12 (stereo unspecified) | 4.1 nM | 8700 nM | 20% | 16% | 19000 nM |
| CN(C)CC1CC1c1cncc2ccccc12 (stereo unspecified) | > 1000 nM |  |  |  |  |
| CN(C)CC1CC1c1c[nH]c2ccc(C#N)cc12 (racemic) | 1.1 nM |  |  |  |  |
| CN(C)C[C@H]1C[C@@H]1c1c[nH]c2ccc(F)cc12 (racemic) | 4.1 nM |  |  |  |  |
| CN(C)C[C@H]1C[C@@H]1c1c[nH]c2ccccc12 (racemic) | 99 nM |  |  |  |  |
| CN(C)CC1CC1c1c[nH]c2ncccc12 (racemic) | 410 nM |  |  |  |  |
| CN(C)CC1CC1c1n[nH]c2ccc(C#N)cc12 (racemic) | 71 nM | 44000 nM | -4.9% | 0% | > 100000 nM |
| CN(C)CC1CC1c1cnc2ccccn12 (racemic) | > 1000 nM |  |  |  |  |
| CN(C)CC1CC1c1ccc2ccccc2c1 (stereo in doubt; 10b) | 8.6 nM |  |  |  |  |
| CN(C)CC1CC1c1csc2ccccc12 (stereo in doubt; (-)-6) | 150 nM |  |  |  |  |

Second part, the compound after the results:

| IC50 [1] | IC50 [2] | inhibition [3] | inhibition [4] | IC50 [5] | Structure (SMILES) |
| --- | --- | --- | --- | --- | --- |
| 130 nM |  |  |  |  | CN(C)CC1CC1c1cnc2ccccc2c1 (stereo unspecified) |
| 37 nM |  |  |  |  | CCNCC1CC1c1cccc2cc(C#N)ccc12 (stereo unspecified) |
| 67 nM |  |  |  |  | CCN(CC)CC1CC1c1cccc2cc(C#N)ccc12 (stereo unspecified) |
| 16 nM |  |  |  |  | CN(Cc1ccccc1)CC1CC1c1cccc2cc(C#N)ccc12 (stereo unspecified) |
| 550 nM |  |  |  |  | CCN(CC)CC1CC1c1ccc2ccccc2c1 (stereo unspecified) |
| 58 nM |  |  |  |  | CCN(C)CC1CC1c1cccc2ccccc12 (stereo unspecified) |
| 89 nM |  |  |  |  | CNCC1CC1c1cccc2ccccc12 (stereo unspecified) |
| 5.9 nM |  | 82% | 80% |  | CN(C)CC1CC1c1ccc2cc(C#N)c(C#N)cc2c1 (stereo unspecified) |
| 83 nM | 260 nM | 68% | 83% | 710 nM | CN(C)CC1CC1c1ccc2ccc(C#N)cc2c1 (racemic) |
| 8.6 nM | 2400 nM |  |  | 8700 nM | CN(C)CC1CC1c1ccc2ccccc2c1 (single isomer, unassigned; (+)) [listing 1 of 2 here] |
| 18 nM | 33000 nM |  |  | 68000 nM | CN(C)CC1CC1c1cccc2ccccc12 (single isomer, unassigned; (+)) [listing 1 of 2 here] |
|  |  | 18% | 31% |  | CN(C)CC1CC1c1ccc2ccccc2c1 (single isomer, unassigned; (+)) [listing 2 of 2 here] |
|  |  | 2.3% | 12% |  | CN(C)CC1CC1c1cccc2ccccc12 (single isomer, unassigned; (+)) [listing 2 of 2 here] |
| 140 nM |  |  |  |  | CN(C)CC1CC1c1ccc2ccccc2c1 (single isomer, unassigned; (-)) |
| 170 nM |  |  |  |  | CN(C)CC1CC1c1cccc2ccccc12 (single isomer, unassigned; (-)) |
| 25 nM |  |  |  |  | CN(C)CC1CC1c1csc2ccccc12 (stereo in doubt; 6) |
| 15 nM |  |  |  |  | CN(C)CC1CC1c1cccc2ccccc12 (stereo in doubt; 9b) |
| 55 nM |  |  |  |  | CN(C)CC1CC1c1csc2ccccc12 (stereo in doubt; (+)-6) [listing 1 of 2 here] |
|  |  | 13% | 24% |  | CN(C)CC1CC1c1csc2ccccc12 (stereo in doubt; (+)-6) [listing 2 of 2 here] |
